Data as given in patent US6479651B1, “Modified oligonucleotides, their preparation and their use” (Aventis Pharma Deutschland GmbH, priority 1994, dated 2002).

| SMILES | melting point |
| --- | --- |
| COc1nc(NC=O)nc2c1c(Cl)c(Cl)n2[C@H]1C[C@H](OC(=O)C(C)C)[C@@H](COC(=O)C(C)C)O1 [Compound 49, 7-[2-Deoxy-3,5-di-O-(2-methylpropionyl)-β-D-erythropentofuranosyl]-5,6-dichloro-2-[(formyl)amino]-4-methoxy-7H-pyrrolo[2,3-d]pyrimidine] | 127 to 128 °C |
| O=C(Nc1ncnc2c1c(Br)cn2[C@H]1C[C@H](O)[C@@H](CO)O1)c1ccccc1 [Compound 5, 4-Benzoylamino-5-bromo-7-(2-deoxy-β-D-erythropentofuranosyl)-7H-pyrrolo[2,3-d]pyrimidine] | 198 °C |
| Nc1ncnc2c1c(I)cn2[C@H]1C[C@H](O)[C@@H](CO)O1 [Compound 14, 4-Amino-7-(2-deoxy-β-D-erythropentofuranosyl)-5-iodo-7H-pyrrolo [2,3-d]pyrimidine] | 194 °C |
| Nc1nc2c(c(I)cn2[C@H]2C[C@H](O)[C@@H](CO)O2)c(=O)[nH]1 [Compound 58, 2-Amino-7-(2-deoxy-β-D-erythropentofuranosyl)-5-iodo-3,7-dihydro-4H-pyrrolo[2,3-d]pyrimidin-4-one] | 218 to 220 °C |
| Cc1cn([C@H]2C[C@H](O)[C@@H](CO)O2)c2ncnc(NC(=O)c3ccccc3)c12 [Compound 6, 4-Benzoylamino-7-(2-deoxy-β-D-erythropentofuranosyl)-5-methyl-7H-pyrrolo[2,3-d]pyrimidine] | 196 °C |
| O=C(Nc1ncnc2c1c(Cl)cn2[C@H]1C[C@H](O)[C@@H](CO)O1)c1ccccc1 [Compound 4, 4-Benzoylamino-5-chloro-7-(2-deoxy-β-D-erythropentofuranosyl)-7H-pyrrolo[2,3-d]pyrimidine] | 190 °C |
